Data: patent US9487479B2, “Small molecule inhibitors of N-terminus activation of the androgen receptor” (The University of British Columbia, priority 2008, dated 2016)

Legend:
androgen receptor (AR) = molecular target: T1, androgen receptor (AR) (Homo sapiens, UniProt P10275, T878A); test: PSA (6.1 kb)-luciferase reporter assay in LNCaP cells; type: cell-based; conditions: 5 μg/ml
T1 construct: endogenous in cells; host or cells: LNCaP human prostate cancer cells
T1 sequence (P10275 1-920 T878A): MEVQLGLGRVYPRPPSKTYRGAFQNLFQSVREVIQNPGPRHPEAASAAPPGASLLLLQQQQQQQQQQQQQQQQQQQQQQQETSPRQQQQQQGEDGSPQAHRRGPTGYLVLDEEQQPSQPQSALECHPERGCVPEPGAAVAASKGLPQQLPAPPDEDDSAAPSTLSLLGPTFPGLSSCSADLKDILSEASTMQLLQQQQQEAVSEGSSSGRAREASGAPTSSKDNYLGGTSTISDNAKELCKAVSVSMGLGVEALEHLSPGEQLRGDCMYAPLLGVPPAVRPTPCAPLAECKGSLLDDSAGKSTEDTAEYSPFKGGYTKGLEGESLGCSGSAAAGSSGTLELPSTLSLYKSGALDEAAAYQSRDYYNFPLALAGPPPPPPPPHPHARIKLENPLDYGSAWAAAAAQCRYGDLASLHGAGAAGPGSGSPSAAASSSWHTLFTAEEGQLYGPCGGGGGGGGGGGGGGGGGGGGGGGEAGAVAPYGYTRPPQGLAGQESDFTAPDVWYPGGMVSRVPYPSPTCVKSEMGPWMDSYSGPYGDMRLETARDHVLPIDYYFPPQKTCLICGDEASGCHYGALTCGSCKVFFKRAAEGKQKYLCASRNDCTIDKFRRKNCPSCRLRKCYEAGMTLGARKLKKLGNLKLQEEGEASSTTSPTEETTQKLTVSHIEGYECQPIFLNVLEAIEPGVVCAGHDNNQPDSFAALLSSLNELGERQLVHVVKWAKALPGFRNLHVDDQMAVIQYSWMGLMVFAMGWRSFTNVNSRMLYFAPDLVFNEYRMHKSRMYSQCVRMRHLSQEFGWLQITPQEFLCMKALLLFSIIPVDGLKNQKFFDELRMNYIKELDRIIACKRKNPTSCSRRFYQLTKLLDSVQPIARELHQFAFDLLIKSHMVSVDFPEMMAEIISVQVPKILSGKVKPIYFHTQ
Experimental: (§1) White bars represent no steroid (ethanol control). Wherein glucocorticoid receptor (GR) and progesterone receptor (PR).
The cells were harvested 24 hours later and analyzed for luciferase activity. The data is normalized to protein that was measured using Bradford assay.
Sequence similarities of amino acids in the AR with related human steroid receptors (glucocorticoid receptor (GR) and progesterone receptor (PR)) are significant in some domains such as the DNA-binding-domain (DBD). Although the AR-NTD shares less than 15% homology with the PR and GR, these receptors do interact with some of the same proteins such as SRC-1 (steroid receptor coactivator-1). […] Cells were co-transfected with expression plasmids for full-length hGR and PRβ and the relative reporter (i.e., pGR-Luc or PRE-E1b-Luc reporters). Cells were then treated with ethanol vehicle, dexamethasone (GR), 4-pregnene-3,20 dione (progesterone) (PR) followed by measurement of luciferase activity.
Activation of the endogenous AR was measured in LNCaP human prostate cancer cells by measuring an androgen-responsive reporter containing androgen response elements (AREs). The PSA (6.1 kb)-luciferase reporter gene construct contains several well-characterized AREs and is induced by androgen.

[1] = molecular target: T2, progesterone receptor (PR) (Homo sapiens, UniProt P06401); test: PRE-luciferase reporter assay in LNCaP cells transfected with PRβ; type: cell-based; conditions: 5 μg/ml, progesterone 10 nM, 24 h
T2 construct: Cells were co-transfected with expression plasmids for full-length hGR and PRβ; expressed in transfected cells; host or cells: LNCaP cells
T2 sequence (P06401 1-933): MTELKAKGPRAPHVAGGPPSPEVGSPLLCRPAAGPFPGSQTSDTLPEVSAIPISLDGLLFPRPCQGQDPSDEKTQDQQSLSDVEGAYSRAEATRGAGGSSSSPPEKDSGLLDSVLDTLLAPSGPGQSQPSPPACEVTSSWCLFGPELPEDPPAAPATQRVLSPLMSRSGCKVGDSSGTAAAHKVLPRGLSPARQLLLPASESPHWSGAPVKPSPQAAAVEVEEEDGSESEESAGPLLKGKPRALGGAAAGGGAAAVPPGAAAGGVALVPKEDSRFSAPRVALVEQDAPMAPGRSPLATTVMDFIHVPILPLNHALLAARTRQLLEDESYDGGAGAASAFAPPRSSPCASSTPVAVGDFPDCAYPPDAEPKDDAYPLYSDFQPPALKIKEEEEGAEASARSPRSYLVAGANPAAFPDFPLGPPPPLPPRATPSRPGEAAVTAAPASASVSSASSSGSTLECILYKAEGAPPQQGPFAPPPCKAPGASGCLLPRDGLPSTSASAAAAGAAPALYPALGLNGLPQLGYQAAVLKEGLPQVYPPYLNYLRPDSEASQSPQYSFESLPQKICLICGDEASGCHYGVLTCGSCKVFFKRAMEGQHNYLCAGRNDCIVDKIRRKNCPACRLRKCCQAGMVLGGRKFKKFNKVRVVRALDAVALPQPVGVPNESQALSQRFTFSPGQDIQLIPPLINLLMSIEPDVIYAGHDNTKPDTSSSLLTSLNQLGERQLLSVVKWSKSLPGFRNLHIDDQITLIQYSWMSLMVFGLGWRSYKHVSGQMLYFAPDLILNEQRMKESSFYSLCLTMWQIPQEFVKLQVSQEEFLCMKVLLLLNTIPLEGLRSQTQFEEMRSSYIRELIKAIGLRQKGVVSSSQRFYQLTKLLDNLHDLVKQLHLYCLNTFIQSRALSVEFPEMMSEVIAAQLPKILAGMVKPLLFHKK
Source text: as §1
Sequence similarities of amino acids in the AR with related human steroid receptors (glucocorticoid receptor (GR) and progesterone receptor (PR)) are significant in some domains such as the DNA-binding-domain (DBD). Although the AR-NTD shares less than 15% homology with the PR and GR, these receptors do interact with some of the same proteins such as SRC-1 (steroid receptor coactivator-1). Therefore, reporter gene assays were used to determine if candidate compounds that block AR activity have any effect on GR and PR transcriptional activity. Cells were co-transfected with expression plasmids for full-length hGR and PRβ and the relative reporter (i.e., pGR-Luc or PRE-E1b-Luc reporters). Cells were then treated with ethanol vehicle, dexamethasone (GR), 4-pregnene-3,20 dione (progesterone) (PR) followed by measurement of luciferase activity.

Compound: CCC(=O)N[C@H](C[C@H](C)C(Cl)(Cl)Cl)C(=O)N1C(=O)C=C(OC)[C@@H]1C[C@H](C)C(Cl)Cl [CB3.1, Sintokamide A]
- inhibition of R1881 induction of PSA (6.1)-luciferase (androgen receptor (AR); 1 hour pretreatment, R1881 1 nM, 24 hours): inhibition
- AR activity measured with the PSA (6.1) luciferase reporter (androgen receptor (AR); steroid 10 nM, 24 h): strongly inhibited
- PRE-luciferase activity in response to ligand [1]: did not inhibit
